Measured values: PMC3471809 (Bioorganic & medicinal chemistry, 2012)
In brackets after ≈: the same amount, converted by molar mass. Where two headings read alike, the source gives them in different places.

Assays:
S. aureus PlsY (SaPlsY) [1] = target: T1, S. aureus PlsY (SaPlsY) (Staphylococcus aureus, UniProt P67164); test: biochemical; format: E. coli FB23281 (delta plsY) membranes
T1 sequence (P67164 1-202): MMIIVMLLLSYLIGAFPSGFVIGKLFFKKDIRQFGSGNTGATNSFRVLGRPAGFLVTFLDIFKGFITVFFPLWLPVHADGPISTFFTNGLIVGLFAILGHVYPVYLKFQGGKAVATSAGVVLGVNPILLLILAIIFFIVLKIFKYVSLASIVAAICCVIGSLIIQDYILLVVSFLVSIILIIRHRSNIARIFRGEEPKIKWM

S. pneumoniae R6 = test: microbe, parasite or virus in culture; conditions: Streptococcus pneumoniae, R6, read-out: MIC
S. aureus PlsY (SaPlsY) [2] = target: T1, S. aureus PlsY (SaPlsY); test: biochemical; format: E. coli FB23281 (delta plsY) membranes; remark: listed apart in the source

Row | SMILES | MIC (S. pneumoniae R6) | other results
1 | CCCCCCCCCCCCCCCC(=O)NS(=O)(=O)Oc1ccc(CCN)cc1 [compound 16] | – | IC50 (S. aureus PlsY (SaPlsY) [1]): > 100 µM
2 | CCCCCCCCCCCCCCCC(=O)NS(=O)(=O)Oc1ccc(-c2ccc([N+](=O)[O-])cc2)cc1 [compound 18, 4'-nitrobiphenyl-4-yl palmitoylsulfamate] | 100 µg/mL (≈ 188 µM) | –
3 | CCCCCCCCCCCCCCCC(=O)NS(=O)(=O)Oc1ccc2ncccc2c1 [compound 20, Quinolin-6-yl palmitoylsulfamate] | > 200 µg/mL | –
4 | CCCCCCCCCCCCCCCC(=O)NS(=O)(=O)OC1CCNCC1 [compound 6] | – | IC50 (S. aureus PlsY (SaPlsY) [2]): > 100 µM
5 | CCCCCCCCCCCCCCCC(=O)NS(=O)(=O)Oc1ccc(CC(=O)OC)cc1 [compound 14, Methyl 2-(4-(N-palmitoylsulfamoyloxy)phenyl)acetate] | 100 µg/mL (≈ 207 µM) | –
6 | CCCCCCCCCCCCCCCC(=O)NS(=O)(=O)Oc1ccc2c(c1)OCO2 [compound 19, Benzo[d][1,3]dioxol-5-yl palmitoylsulfamate] | 200 µg/mL (≈ 439 µM) | –
7 | CCCCCCCCCCCCCCCC(=O)NS(=O)(=O)Oc1ccc(C(=O)OCC)cc1 [compound 15, Ethyl 4-(N-palmitoylsulfamoyloxy)benzoate] | 200 µg/mL (≈ 414 µM) | –
8 | CCCCCCCCCCCCCCCC(=O)NS(=O)(=O)Oc1ccc2c(OS(N)(=O)=O)coc2c1 [compound 21] | > 200 µg/mL | –
